In brackets after ≈: the same amount, converted by molar mass. Residues, ends and D or L forms follow the SMILES beside them. No end group written: not given here. *: point of attachment. Myristoyl = CCCCCCCCCCCCCC(=O)*; Lauroyl = CCCCCCCCCCCC(=O)*; Decanoyl = CCCCCCCCCC(=O)*; Octanoyl = CCCCCCCC(=O)*; Hexanoyl = CCCCCC(=O)*
Tests used:
P. aeruginosa PAO1 = type: cell-based, Pseudomonas aeruginosa
[1] = system: Klebsiella pneumonia ATCC 13883; type: cell-based, Klebsiella pneumoniae

| Compound | MIC PA (P. aeruginosa PAO1) [µM] | MIC KP [1] [µM] | MIC EC (E. coli ATCC25922) [µM] |
| --- | --- | --- | --- |
| CCCCCCCCCC(=O)N[C@@H](CCCCN)C(=O)N[C@@H](CCCNC(=N)N)C(=O)N[C@H](C(=O)N[C@@H](Cc1c[nH]c2ccccc12)C(=O)N[C@@H](CCC(N)=O)C(=O)N[C@@H](CCCNC(=N)N)C(=O)N[C@H](C(=O)N[C@@H](CCCCN)C(=O)N[C@@H](CC(=O)O)C(=O)N[C@@H](Cc1ccccc1)C(N)=O)[C@@H](C)CC)[C@@H](C)CC [Peptide C10-KR10] (Decanoyl-KRIWQRIKDF-NH2) | 6.2 (≈ 9.57 µg/mL) | 6.2 (≈ 9.57 µg/mL) |  |
| CCCCCCCCCCCC(=O)N[C@@H](CCCCN)C(=O)N[C@@H](CCCNC(=N)N)C(=O)N[C@H](C(=O)N[C@@H](Cc1c[nH]c2ccccc12)C(=O)N[C@@H](CCC(N)=O)C(=O)N[C@@H](CCCNC(=N)N)C(=O)N[C@H](C(=O)N[C@@H](CCCCN)C(=O)N[C@@H](CC(=O)O)C(=O)N[C@@H](Cc1ccccc1)C(N)=O)[C@@H](C)CC)[C@@H](C)CC [Peptide C12-KR10] (Lauroyl-KRIWQRIKDF-NH2) | 3.1 (≈ 4.87 µg/mL) | 3.1 (≈ 4.87 µg/mL) |  |
| CCCCCCCCCCCC(=O)N[C@@H](CCCCN)C(=O)N[C@@H](CCCNC(=N)N)C(=O)N[C@H](C(=O)N[C@@H](Cc1c[nH]c2ccccc12)C(=O)N[C@@H](CCC(N)=O)C(=O)N[C@@H](CCCNC(=N)N)C(=O)N[C@H](C(=O)N[C@@H](CCCCN)C(N)=O)[C@@H](C)CC)[C@@H](C)CC [Peptide C12-KR8] (Lauroyl-KRIWQRIK-NH2) |  | >50 |  |
| CCCCCCCCCCCC(=O)N[C@@H](CCCCN)C(=O)N[C@@H](CCCNC(=N)N)C(=O)N[C@H](C(=O)N[C@@H](Cc1c[nH]c2ccccc12)C(=O)N[C@@H](CCC(N)=O)C(=O)N[C@@H](CCCNC(=N)N)C(=O)N[C@H](C(=O)N[C@@H](CCCCN)C(=O)N[C@@H](CC(=O)O)C(=O)N[C@@H](Cc1ccccc1)C(=O)N[C@@H](CC(C)C)C(=O)N[C@@H](CCCNC(=N)N)C(N)=O)[C@@H](C)CC)[C@@H](C)CC [Peptide C12-KR12] (Lauroyl-KRIWQRIKDFLR-NH2) |  | 12.5 (≈ 23 µg/mL) |  |
| CCCCCC(=O)N[C@@H](CCCCN)C(=O)N[C@@H](CCCNC(=N)N)C(=O)N[C@H](C(=O)N[C@@H](Cc1c[nH]c2ccccc12)C(=O)N[C@@H](CCC(N)=O)C(=O)N[C@@H](CCCNC(=N)N)C(=O)N[C@H](C(=O)N[C@@H](CCCCN)C(=O)N[C@@H](CC(=O)O)C(=O)N[C@@H](Cc1ccccc1)C(N)=O)[C@@H](C)CC)[C@@H](C)CC [Peptide C6-KR10] (Hexanoyl-KRIWQRIKDF-NH2) |  | >50 |  |
| CCCCCC(=O)N[C@@H](CCCCN)C(=O)N[C@@H](CCCNC(=N)N)C(=O)N[C@H](C(=O)N[C@@H](Cc1c[nH]c2ccccc12)C(N)=O)[C@@H](C)CC [Peptide C6-KR4] (Hexanoyl-KRIW-NH2; C-terminus assumed) |  | >50 |  |
| CCCCCCCCCCCCCC(=O)N[C@@H](CCCCN)C(=O)N[C@@H](CCCNC(=N)N)C(=O)N[C@H](C(=O)N[C@@H](Cc1c[nH]c2ccccc12)C(=O)N[C@@H](CCC(N)=O)C(=O)N[C@@H](CCCNC(=N)N)C(=O)N[C@H](C(=O)N[C@@H](CCCCN)C(=O)N[C@@H](CC(=O)O)C(=O)N[C@@H](Cc1ccccc1)C(N)=O)[C@@H](C)CC)[C@@H](C)CC [Peptide C14-KR10] (Myristoyl-KRIWQRIKDF-NH2) |  | 6.2 (≈ 9.91 µg/mL) |  |
| CCCCCCCCCCCCCC(=O)N[C@@H](CCCCN)C(=O)N[C@@H](CCCNC(=N)N)C(=O)N[C@H](C(=O)N[C@@H](Cc1c[nH]c2ccccc12)C(=O)N[C@@H](CCC(N)=O)C(=O)N[C@@H](CCCNC(=N)N)C(N)=O)[C@@H](C)CC [Peptide C14-KR6] (Myristoyl-KRIWQR-NH2; C-terminus assumed) |  | >50 |  |
| CCCCCCCCCCCC(=O)N[C@@H](CCCCN)C(=O)N[C@@H](CCCNC(=N)N)C(=O)N[C@H](C(=O)N[C@@H](Cc1c[nH]c2ccccc12)C(=O)N[C@@H](CCC(N)=O)C(=O)N[C@@H](CCCNC(=N)N)C(N)=O)[C@@H](C)CC [Peptide C12-KR6] (Lauroyl-KRIWQR-NH2; C-terminus assumed) |  | >50 |  |
| CCCCCCCC(=O)N[C@@H](CCCCN)C(=O)N[C@@H](CCCNC(=N)N)C(=O)N[C@H](C(=O)N[C@@H](Cc1c[nH]c2ccccc12)C(=O)N[C@@H](CCC(N)=O)C(=O)N[C@@H](CCCNC(=N)N)C(N)=O)[C@@H](C)CC [Peptide C8-KR6] (Octanoyl-KRIWQR-NH2; C-terminus assumed) |  | >50 |  |
| CCCCCC(=O)N[C@@H](CCCCN)C(=O)N[C@@H](CCCNC(=N)N)C(=O)N[C@H](C(=O)N[C@@H](Cc1c[nH]c2ccccc12)C(=O)N[C@@H](CCC(N)=O)C(=O)N[C@@H](CCCNC(=N)N)C(=O)N[C@H](C(=O)N[C@@H](CCCCN)C(N)=O)[C@@H](C)CC)[C@@H](C)CC [Peptide C6-KR8] (Hexanoyl-KRIWQRIK-NH2) |  | >50 |  |
| CCCCCCCC(=O)N[C@@H](CCCCN)C(=O)N[C@@H](CCCNC(=N)N)C(=O)N[C@H](C(=O)N[C@@H](Cc1c[nH]c2ccccc12)C(N)=O)[C@@H](C)CC [Peptide C8-KR4] (Octanoyl-KRIW-NH2; C-terminus assumed) |  | >50 |  |
| CCCCCC(=O)N[C@@H](CCCCN)C(=O)N[C@@H](CCCNC(=N)N)C(=O)N[C@H](C(=O)N[C@@H](Cc1c[nH]c2ccccc12)C(=O)N[C@@H](CCC(N)=O)C(=O)N[C@@H](CCCNC(=N)N)C(=O)N[C@H](C(=O)N[C@@H](CCCCN)C(=O)N[C@@H](CC(=O)O)C(=O)N[C@@H](Cc1ccccc1)C(=O)N[C@@H](CC(C)C)C(=O)N[C@@H](CCCNC(=N)N)C(N)=O)[C@@H](C)CC)[C@@H](C)CC [Peptide C6-KR12] (Hexanoyl-KRIWQRIKDFLR-NH2) |  | 6.2 (≈ 10.9 µg/mL) |  |
| CCCCCCCCCC(=O)N[C@@H](CCCCN)C(=O)N[C@@H](CCCNC(=N)N)C(=O)N[C@H](C(=O)N[C@@H](Cc1c[nH]c2ccccc12)C(=O)N[C@@H](CCC(N)=O)C(=O)N[C@@H](CCCNC(=N)N)C(N)=O)[C@@H](C)CC [Peptide C10-KR6] (Decanoyl-KRIWQR-NH2; C-terminus assumed) |  | >50 |  |
| CCCCCCCCCC(=O)N[C@@H](CCCCN)C(=O)N[C@@H](CCCNC(=N)N)C(=O)N[C@H](C(=O)N[C@@H](Cc1c[nH]c2ccccc12)C(N)=O)[C@@H](C)CC [Peptide C10-KR4] (Decanoyl-KRIW-NH2; C-terminus assumed) |  | >50 |  |
| CCCCCC(=O)N[C@@H](CCCCN)C(=O)N[C@@H](CCCNC(=N)N)C(=O)N[C@H](C(=O)N[C@@H](Cc1c[nH]c2ccccc12)C(=O)N[C@@H](CCC(N)=O)C(=O)N[C@@H](CCCNC(=N)N)C(N)=O)[C@@H](C)CC [Peptide C6-KR6] (Hexanoyl-KRIWQR-NH2; C-terminus assumed) |  | >50 |  |
| CCCCCCCC(=O)N[C@@H](CCCCN)C(=O)N[C@@H](CCCNC(=N)N)C(=O)N[C@H](C(=O)N[C@@H](Cc1c[nH]c2ccccc12)C(=O)N[C@@H](CCC(N)=O)C(=O)N[C@@H](CCCNC(=N)N)C(=O)N[C@H](C(=O)N[C@@H](CCCCN)C(=O)N[C@@H](CC(=O)O)C(=O)N[C@@H](Cc1ccccc1)C(=O)N[C@@H](CC(C)C)C(=O)N[C@@H](CCCNC(=N)N)C(N)=O)[C@@H](C)CC)[C@@H](C)CC [Peptide C8-KR12] (Octanoyl-KRIWQRIKDFLR-NH2) |  | <6.2 |  |
| KRIVQRIKDFLR-NH2 [KR12, reference compound] |  | >50 | >50 |
| CCCCCCCCCCCCCC(=O)N[C@@H](CCCCN)C(=O)N[C@@H](CCCNC(=N)N)C(=O)N[C@H](C(=O)N[C@@H](Cc1c[nH]c2ccccc12)C(=O)N[C@@H](CCC(N)=O)C(=O)N[C@@H](CCCNC(=N)N)C(=O)N[C@H](C(=O)N[C@@H](CCCCN)C(N)=O)[C@@H](C)CC)[C@@H](C)CC [Peptide C14-KR8] (Myristoyl-KRIWQRIK-NH2) |  | >50 |  |
| CCCCCCCC(=O)N[C@@H](CCCCN)C(=O)N[C@@H](CCCNC(=N)N)C(=O)N[C@H](C(=O)N[C@@H](Cc1c[nH]c2ccccc12)C(=O)N[C@@H](CCC(N)=O)C(=O)N[C@@H](CCCNC(=N)N)C(=O)N[C@H](C(=O)N[C@@H](CCCCN)C(N)=O)[C@@H](C)CC)[C@@H](C)CC [Peptide C8-KR8] (Octanoyl-KRIWQRIK-NH2) |  | >50 |  |
| CCCCCCCCCCCC(=O)N[C@@H](CCCCN)C(=O)N[C@@H](CCCNC(=N)N)C(=O)N[C@H](C(=O)N[C@@H](Cc1c[nH]c2ccccc12)C(N)=O)[C@@H](C)CC [Peptide C12-KR4] (Lauroyl-KRIW-NH2; C-terminus assumed) |  | >50 |  |
| CCCCCCCCCC(=O)N[C@@H](CCCCN)C(=O)N[C@@H](CCCNC(=N)N)C(=O)N[C@H](C(=O)N[C@@H](Cc1c[nH]c2ccccc12)C(=O)N[C@@H](CCC(N)=O)C(=O)N[C@@H](CCCNC(=N)N)C(=O)N[C@H](C(=O)N[C@@H](CCCCN)C(=O)N[C@@H](CC(=O)O)C(=O)N[C@@H](Cc1ccccc1)C(=O)N[C@@H](CC(C)C)C(=O)N[C@@H](CCCNC(=N)N)C(N)=O)[C@@H](C)CC)[C@@H](C)CC [Peptide C10-KR12] (Decanoyl-KRIWQRIKDFLR-NH2) |  | 6.2 to 12.5 |  |
| CCCCCCCCCCCCCC(=O)N[C@@H](CCCCN)C(=O)N[C@@H](CCCNC(=N)N)C(=O)N[C@H](C(=O)N[C@@H](Cc1c[nH]c2ccccc12)C(N)=O)[C@@H](C)CC [Peptide C14-KR4] (Myristoyl-KRIW-NH2; C-terminus assumed) |  | 12.5 (≈ 10.1 µg/mL) |  |
